According to patent US5672715A, “Herbicidal substituted 3-aryl-pyrazoles” (Monsanto Company, priority 1995, dated 1997):

Columns and labels:
Assay type in all cases: in vivo
Barnyardgrass [1] = assay: pre-emergence herbicide test; conditions: Echinochloa crus-galli, pre-emergence, read-out: % plant inhibition
Method in brief: (§1)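 Steps: compact topsoil in pan; place seeds; level-fill with cover soil; add a known amount of compound before or after covering; keep pans in greenhouse, bottom-watering as needed; rate % inhibition at about 14 days.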

Cocklebur [2] = assay: pre-emergence herbicide test; conditions: Xanthium strumarium, pre-emergence, read-out: % plant inhibition
Method in brief: as §1

Corn = assay: pre-emergence herbicide test
Method in brief: as §1

Morning Glory [3] = assay: pre-emergence herbicide test; conditions: Ipomoea, pre-emergence, read-out: % plant inhibition
Method in brief: as §1

Rice = assay: pre-emergence herbicide test; conditions: Oryza sativa, read-out: % plant inhibition
Method in brief: as §1

Soybean = assay: pre-emergence herbicide test; conditions: Glycine max, pre-emergence, read-out: % plant inhibition
Method in brief: as §1

Velvetleaf = assay: pre-emergence herbicide test; conditions: Abutilon theophrasti, pre-emergence, read-out: % plant inhibition
Method in brief: as §1

Yellow Foxtail [4] = assay: pre-emergence herbicide test; conditions: Setaria, read-out: % plant inhibition
Method in brief: as §1

Yellow Nutsedge [5] = assay: pre-emergence herbicide test; conditions: Cyperus, read-out: % plant inhibition
Method in brief: as §1

Barnyardgrass [6] = assay: post-emergence herbicide test; conditions: Echinochloa crus-galli, post-emergence, read-out: % plant inhibition
Method in brief: (§2)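 Greenhouse plants grown from seeds in topsoil were treated two to three weeks after sowing with a spray solution or suspension of test chemical with about 0.4% by volume emulsifier, applied at 1870 L/Ha and 170.3 kPa. Percent inhibition per species was the endpoint.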

Bedstraw Catchweed = assay: post-emergence herbicide test; conditions: Galium aparine, post-emergence, read-out: % plant inhibition
Method in brief: as §2

Cocklebur [7] = assay: post-emergence herbicide test; conditions: Xanthium strumarium, post-emergence, read-out: % plant inhibition
Method in brief: as §2

Common Chickweed = assay: post-emergence herbicide test; conditions: post-emergence, read-out: % plant inhibition
Method in brief: as §2

Morning Glory [8] = assay: post-emergence herbicide test; conditions: Ipomoea, post-emergence, read-out: % plant inhibition
Method in brief: as §2

Yellow Foxtail [9] = assay: post-emergence herbicide test; conditions: Setaria, read-out: % plant inhibition
Method in brief: as §2

Yellow Nutsedge [10] = assay: post-emergence herbicide test; conditions: Cyperus, read-out: % plant inhibition
Method in brief: as §2

COc1cc(-c2nn(C)c(C(F)(F)F)c2C)c(F)cc1Cl [Compound 37]
inhibition at 7.95803 g/ha (Barnyardgrass [1]; 0.0071 lb/A): 80% | inhibition at 40.0143 g/ha (Barnyardgrass [1]; 0.0357 lb/A): 100% | inhibition at 200.072 g/ha (Barnyardgrass [1]; 0.1785 lb/A): 100% | inhibition at 280.212 g/ha (Barnyardgrass [1]; 0.25 lb/A): 100% | inhibition at 1000.92 g/ha (Barnyardgrass [1]; 0.893 lb/A): 100% | inhibition at 7.95803 g/ha (Cocklebur [2]; 0.0071 lb/A): 100% | inhibition at 40.0143 g/ha (Cocklebur [2]; 0.0357 lb/A): 75% | inhibition at 200.072 g/ha (Cocklebur [2]; 0.1785 lb/A): 80% | inhibition at 280.212 g/ha (Cocklebur [2]; 0.25 lb/A): 60% | inhibition at 1000.92 g/ha (Cocklebur [2]; 0.893 lb/A): 98% | % plant inhibition (Corn; 0.25 lb/A): 98% | inhibition at 7.95803 g/ha (Corn; Zea mays, pre-emergence, 0.0071 lb/A, read-out: % plant inhibition): 25% | inhibition at 40.0143 g/ha (Corn; Zea mays, pre-emergence, 0.0357 lb/A, read-out: % plant inhibition): 50% | inhibition at 200.072 g/ha (Corn; Zea mays, pre-emergence, 0.1785 lb/A, read-out: % plant inhibition): 85% | inhibition at 280.212 g/ha (Corn; Zea mays, pre-emergence, 0.25 lb/A, read-out: % plant inhibition): 95% | inhibition at 1000.92 g/ha (Corn; Zea mays, pre-emergence, 0.893 lb/A, read-out: % plant inhibition): 100% | inhibition at 7.95803 g/ha (Morning Glory [3]; 0.0071 lb/A): 80% | inhibition at 40.0143 g/ha (Morning Glory [3]; 0.0357 lb/A): 98% | inhibition at 200.072 g/ha (Morning Glory [3]; 0.1785 lb/A): 90% | inhibition at 280.212 g/ha (Morning Glory [3]; 0.25 lb/A): 98% | inhibition at 1000.92 g/ha (Morning Glory [3]; 0.893 lb/A): 100% | inhibition at 7.95803 g/ha (Rice; 0.0071 lb/A): 25% | inhibition at 40.0143 g/ha (Rice; 0.0357 lb/A): 0% | inhibition at 200.072 g/ha (Rice; 0.1785 lb/A): 85% | inhibition at 1000.92 g/ha (Rice; 0.893 lb/A): 100% | inhibition at 7.95803 g/ha (Soybean; 0.0071 lb/A): 20% | inhibition at 40.0143 g/ha (Soybean; 0.0357 lb/A): 50% | inhibition at 200.072 g/ha (Soybean; 0.1785 lb/A): 50% | inhibition at 280.212 g/ha (Soybean; 0.25 lb/A): 35% | inhibition at 1000.92 g/ha (Soybean; 0.893 lb/A): 100% | inhibition at 7.95803 g/ha (Velvetleaf; 0.0071 lb/A): 98% | inhibition at 40.0143 g/ha (Velvetleaf; 0.0357 lb/A): 100% | inhibition at 200.072 g/ha (Velvetleaf; 0.1785 lb/A): 100% | inhibition at 280.212 g/ha (Velvetleaf; 0.25 lb/A): 100% | inhibition at 1000.92 g/ha (Velvetleaf; 0.893 lb/A): 100% | inhibition at 7.95803 g/ha (Yellow Foxtail [4]; 0.0071 lb/A): 55% | inhibition at 40.0143 g/ha (Yellow Foxtail [4]; 0.0357 lb/A): 95% | inhibition at 200.072 g/ha (Yellow Foxtail [4]; 0.1785 lb/A): 100% | inhibition at 280.212 g/ha (Yellow Foxtail [4]; 0.25 lb/A): 100% | inhibition at 1000.92 g/ha (Yellow Foxtail [4]; 0.893 lb/A): 100% | inhibition at 7.95803 g/ha (Yellow Nutsedge [5]; 0.0071 lb/A): 0% | inhibition at 40.0143 g/ha (Yellow Nutsedge [5]; 0.0357 lb/A): 35% | inhibition at 200.072 g/ha (Yellow Nutsedge [5]; 0.1785 lb/A): 50% | inhibition at 1000.92 g/ha (Yellow Nutsedge [5]; 0.893 lb/A): 45% | inhibition at 7.95803 g/ha (Barnyardgrass [6]; 0.0071 lb/A): 0% | inhibition at 40.0143 g/ha (Barnyardgrass [6]; 0.0357 lb/A): 15% | inhibition at 200.072 g/ha (Barnyardgrass [6]; 0.1785 lb/A): 65% | inhibition at 1000.92 g/ha (Barnyardgrass [6]; 0.893 lb/A): 45% | inhibition at 7.95803 g/ha (Bedstraw Catchweed; 0.0071 lb/A): 20% | inhibition at 40.0143 g/ha (Bedstraw Catchweed; 0.0357 lb/A): 35% | inhibition at 200.072 g/ha (Bedstraw Catchweed; 0.1785 lb/A): 75% | inhibition at 1000.92 g/ha (Bedstraw Catchweed; 0.893 lb/A): 90% | inhibition at 7.95803 g/ha (Cocklebur [7]; 0.0071 lb/A): 5% | inhibition at 40.0143 g/ha (Cocklebur [7]; 0.0357 lb/A): 40% | inhibition at 200.072 g/ha (Cocklebur [7]; 0.1785 lb/A): 55% | inhibition at 1000.92 g/ha (Cocklebur [7]; 0.893 lb/A): 80% | inhibition at 7.95803 g/ha (Common Chickweed; 0.0071 lb/A): 0% | inhibition at 40.0143 g/ha (Common Chickweed; 0.0357 lb/A): 40% | inhibition at 200.072 g/ha (Common Chickweed; 0.1785 lb/A): 70% | inhibition at 1000.92 g/ha (Common Chickweed; 0.893 lb/A): 80% | inhibition at 7.95803 g/ha (Morning Glory [8]; 0.0071 lb/A): 0% | inhibition at 40.0143 g/ha (Morning Glory [8]; 0.0357 lb/A): 45% | inhibition at 200.072 g/ha (Morning Glory [8]; 0.1785 lb/A): 95% | inhibition at 1000.92 g/ha (Morning Glory [8]; 0.893 lb/A): 100% | inhibition at 7.95803 g/ha (Yellow Foxtail [9]; 0.0071 lb/A): 0% | inhibition at 40.0143 g/ha (Yellow Foxtail [9]; 0.0357 lb/A): 20% | inhibition at 200.072 g/ha (Yellow Foxtail [9]; 0.1785 lb/A): 65% | inhibition at 1000.92 g/ha (Yellow Foxtail [9]; 0.893 lb/A): 65% | inhibition at 7.95803 g/ha (Yellow Nutsedge [10]; 0.0071 lb/A): 0% | inhibition at 40.0143 g/ha (Yellow Nutsedge [10]; 0.0357 lb/A): 10% | inhibition at 200.072 g/ha (Yellow Nutsedge [10]; 0.1785 lb/A): 15% | inhibition at 1000.92 g/ha (Yellow Nutsedge [10]; 0.893 lb/A): 40%
